Assay results taken from EP1242382B1, “TRICYCLIC PROTEIN KINASE INHIBITORS” (Wyeth, priority 1999, dated 2001).

Experiments:
[1] = test system: human adenocarcinoma cell line CaCo-2; experiment: Cell based screen for inhibitors of Raf kinase, quantitative assay; conditions: Caco-2, 96 h, four days incubation
Description: (§1) • Cell Lines: Human adenocarcinoma cell line LoVo which is known to be growth inhibited by low nM concentrations of a reference standard inhibitor of Ras and human adenocarcinoma cell line CaCo-2, which is known to be growth resistant to the same reference compound. • Cell Media : RPMI 1640 with 10% Fetal Bovine Serum supplemented with L-glutamine and Pennicilin/Streptomycin. • Compounds: Supplied usually as a 10 mM stock in 100% DMSO. • Normal Saline: 150 mM NaCl • Trichloroacetic Acid (TCA): 50% (w/v) in water • Sulforhodamine B (SRB): 0.4% (w/v) in 1% Acetic Acid • Tris Base: 10 mM in water
(§2) Cells are plated at 2000 cells per well for cell line LoVo and 1500 cells for cell line CaCo-2 in 96 well plates. Cells are plated in media (200 µl) and allowed to adhere overnight at 37°C. At 24 hours post plating, compounds are added directly at a volume of 0.5 µl. For the qualitative screen (compounds screened at 25 µM) compound is added directly to cells. For the quantitative screen, compound is first diluted in DMSO to generate concentrations of compound or reference standard of: 1, 5, 10 and 25 µM. It is advisable to make the dilutions in an identical 96 well plate so that compounds can be added using a multichannel micropipettor set at 0.5 µl. The cells are then incubated for four days after which the media is removed using a 12 well manifold by first tipping the plate forward at a 45 degree angle and then inserting the manifold in an upright orientation to prevent the tips of the manifold from disturbing cells at the bottom of the plate. 200 µl of normal saline is then added to each well using an 8 well multichannel pipettor, followed by the careful addition of 50 µl of 50% TCA. The plates are then incubated for 2 hours at 4°C, after which the supernatant is removed using the same technique as above and the plated washed twice with 200 µl water. The plates are then air dried and 50 µl of SRB stock solution is carefully added so that the entire bottom of each well is covered. This again can be used using an 8 well multichannel pipettor. The SRB is incubated with fixed cells for 15 minutes at room temperature after which the SRB is removed with the manifold as described above and the plates washed twice with 350 µl of 1% acetic acid per well each time. The plates are then air dried after which the bound SRB is released from protein by the addition of 200 µl of Tris base. Resolubilizing the SRB is aided by placing the plates on a rotator for 15-30 minutes. The absorbance of each well is determined at 550 or 562 nm using a microtiter plate reader.
(§3) Each compound or dilution thereof is performed in triplicate. Outliers are identified by visual inspection of the data. Each plate should have a "0" control (vehicle only).
(§4) Quantitative Assay: A standard curve is constructed by plotting the concentration of compound against the average absorbance calculated at that concentration. […] Multiple entries for a given compound indicate that it is tested multiple times.

[2] = test system: Human adenocarcinoma cell line LoVo; experiment: as above; conditions: 96 h, four days incubation
Description: as §1, §2, §3, §4

COc1cc2cc3c(Nc4ccc(OCc5ccccc5)c(Cl)c4)c(C#N)cnc3cc2cc1OCCN1CCOCC1 [Example 218, 4-(4-Benzyloxy-3-chlorophenylamino)-7-methoxy-8-(2-morpholin-4-yl-ethoxy)benzo[g]quinoline-3-carbonitrile]
IC50 [1]: 6 µM
IC50 [2]: 0.43 µM
